These results are taken from patent US6162823A, “LTA4 hydrolase inhibitors” (G.D. Searle & Co., priority 1997, dated 2000).

For assay [1], the system named is LTB4 production by calcium ionophore stimulated mouse blood. The experiment in a line: Murine ex vivo LTB4 inhibition (calcium ionophore stimulated mouse blood after oral dosing). To be noted: for inhibition at 10 mg/kg: read-out: Murine Ex Vivo LTB4 Inhibition, % I LTB4 at 1 hour after administration. It counts as in vivo. As for the experimental part:
The compounds were administered by oral garage to adult male outbred mice weighing approximately 20-30 gm at a dose of 10 mg/kg body weight. […] The mixture was incubated for 10 minutes at 37° C. in a humidified incubator. The reaction was terminated by centrifugation (833 g. 10 minutes at 4° C.). Supernatant were analyzed for LTB4 and thromboxane by commercially available enzyme-linked immunoassays [Caymen Chemical Co., Ann Arbor, Mich.] in accordance with the manufacturer's instructions. The percent inhibition was determined by comparison to animals treated identically except that the solution administered by oral gavage was devoid of inhibitor compound.

Assay [2] addresses T1, recombinant human LTA4 hydrolase (rhLTAH) (Homo sapiens, UniProt P09960).
T1 construct: made in house; host or cells: Spodoptera frugiperda Sf-9 cells (baculovirus)
T1 sequence (P09960 1-611): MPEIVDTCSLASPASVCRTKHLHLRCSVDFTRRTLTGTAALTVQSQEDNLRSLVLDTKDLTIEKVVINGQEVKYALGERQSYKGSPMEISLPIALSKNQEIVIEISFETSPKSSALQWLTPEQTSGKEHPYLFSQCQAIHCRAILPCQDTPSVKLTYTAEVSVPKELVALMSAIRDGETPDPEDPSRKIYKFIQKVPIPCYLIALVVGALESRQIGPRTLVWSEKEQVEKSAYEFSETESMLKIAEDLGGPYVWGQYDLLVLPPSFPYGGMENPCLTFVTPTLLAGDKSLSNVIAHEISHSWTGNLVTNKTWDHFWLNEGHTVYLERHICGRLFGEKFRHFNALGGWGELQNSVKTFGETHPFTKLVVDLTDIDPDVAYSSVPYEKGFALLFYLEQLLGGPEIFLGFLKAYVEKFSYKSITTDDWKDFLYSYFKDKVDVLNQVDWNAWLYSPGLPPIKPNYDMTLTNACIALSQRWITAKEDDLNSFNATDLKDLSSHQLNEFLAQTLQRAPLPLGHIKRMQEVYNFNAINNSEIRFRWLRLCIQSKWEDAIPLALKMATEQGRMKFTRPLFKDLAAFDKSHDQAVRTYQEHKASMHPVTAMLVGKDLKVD
Description: Recombinant Human LTA Hydrolase Assay for LTA Hydrolase Inhibitor Activity. Format: biochemical. The note with it: 10 min preincubation with 250 ng enzyme, LTA4 substrate, room temperature, pH 7.4.
Description: Compounds of the present invention were tested for LTA hydrolase inhibitor activity against recombinant human LTA hydrolase (rhLTAH).
One or more predetermined amounts of a compound of the invention were incubated in assay buffer (0.1 M potassium phosphate, 5 mg/ml fatty acid free BSA, 10% DMSO, pH 7.4) for 10 minutes at room temperature with 250 ng of recombinant hLTA4 H to allow binding, if any, between the enzyme and inhibitor. […] LTA4 (free acid) was thawed and diluted in assay buffer (minus DMSO) to a concentration of 350 ng/ml and 25 μl (8ng) of LTA4 substrate was added to the reaction mixture (total volume of reaction mixture=200 μl at time zero. Each reaction was carried out at room temperature for 10 minutes. The reaction was stopped by diluting 25 μl of the reaction mixture with 500 μl of the assay buffer without DMSO. LTA4 was quantified in the diluted sample by a commercially available enzyme-linked immunoassay [Caymen Chemical Col. Ann Arbor, Mich.] using the method recommended in the manufacturer's instructions and compared to the amount of LTA4 produced in a negative control (i.e., essentially identical conditions except without addition of an inhibitor compound). The IC50 was routinely calculated from the data produced.

Assay [3] has as its system calcium ionophore-induced LTB4 production in human blood. The experiment in a line: Inhibition of calcium ionophore-induced LTB4 production in human blood (HWB). The note with it: read-out: Inhibition of Calcium Ionophore-induced LTB4 Production in Human Blood (HWB) IC50. Format: cell-based.
Description: LTB4 and Thromboxane Production by Calcium Ionophore Stimulated Human Blood for LTB4 Hydrolase Inhibitor Activity
Human blood, collected in heparin-containing Vacutainer tubes, was diluted 1:4 with RPMI-1640 media and 200 μl of the diluted blood was added into each of a 96-well microtiter plate. […] After incubating for 15 minutes at 37° C. in a humidified incubator, calcium ionophore A13187 (Sigma Chemical Co., St. Louis, Mo.) was added to a final concentration of 20 mcg/ml and the incubation continued under the same conditions for an additional 10 minutes to allow LTB4 formation. The reaction was terminated by centrifugation (833 g, 10 minutes at 4° C.) and supernatant were analyzed for LTB4 and thromboxane by commercially available enzyme-linked immunoassays (Caymen Chemical Co., Ann Arbor, Mich.) according to the manufacturer's instructions. The IC50 of each test compound was determined from the amount of inhibition of LTB4 production as compared to an essentially identical assay in which no inhibitor compound was present.
Assay [4] relates to LTA4 hydrolase. The note with it: cited from earlier work.
Where [5] appears, read: mouse, oral gavage, 10 mg/kg (* indicates 50 mg/kg), 1 hour after administration, ionophore A23187 20 mcg/ml.
Setting [6] is: human whole blood diluted 1:4, 15 min preincubation at 37° C., ionophore 20 mcg/ml, 10 min.

Counter-ions that a name gives are not always drawn. Like-named read-outs stand apart in the source and are kept apart here. Bounds are passed on as bounds.

On to `CN(CCCOc1ccc(Cc2ccccc2)cc1)CCC(=O)NS(=O)(=O)c1ccccc1` [Example 22], for which, in assay [1] (Mus musculus, po, 1 h), the inhibition at 10 mg/kg is 94%. Besides, the IC50 (as a rule, the concentration at which inhibition is half-maximal) in assay [2] was determined as 1 nM; in assay [3] (Homo sapiens), 75 nM.
Turning to `CCN(CCCOc1ccc(Cc2ccsc2)cc1)CCC(=O)NS(C)(=O)=O` [Example 15, 3-[Ethyl[3-[4-[(3-thienyl)methyl]phenoxy]propyl]-amino]-N-(methylsulfonyl)propanamide monohydrochloride], the inhibition at 10 mg/kg in assay [1] (setting [5]) was determined as 79%. The IC50 in assay [3] (setting [6]) was determined as 230 nM.
`CCN(CCCOc1ccc(Cc2ccccc2)cc1)CCC(=O)NS(=O)(=O)c1ccccc1` [Example 29]: in assay [1] (setting [5]), the inhibition at 10 mg/kg turned out to be 65%. The figures for the IC50 in assay [2] and in assay [3] (setting [6]) were 79 nM and 130 nM, respectively.
For the molecule `CC(C)C[C@H](NC(=O)[C@@H](O)[C@H](N)Cc1ccccc1)C(=O)O` [bestatin], in assay [4], the “LTA4 hydrolase inhibitory activity” value is listed as “exhibit LTA4 hydrolase inhibitory activity”.
With “N-(phenylsulfonyl)-3-[propyl[3-[4-[(3-thienyl)methyl]phenoxy]propyl]-amino]propanamide monohydrochloride [Example 19]”, in assay [1] (setting [5]), the “Murine Ex Vivo LTB4 Inhibition, % I LTB4 at 1 hour after administration” value (shortened to “Murine Ex Vivo LTB4 Inhibition, % I LTB4”) was determined as 45%. Also, the half-inhibitory concentration (IC50) in assay [2] amounted to 90 nM; in assay [3] (setting [6]) it was 75 nM.
Consider `CC(C)N(CCCOc1ccc(Cc2cccs2)cc1)CCC(=O)NS(C)(=O)=O` [Example 12, 3-[(1-methylethyl)[3-[4-[(2-thienyl)methyl-]phenoxy]propyl]-amino]-N-(methylsulfonyl)-propanamide monohydrochloride], for which, in assay [1] (setting [5]), the inhibition at 10 mg/kg was found to be 68%. Besides, the 50% inhibitory concentration (IC50) came to 12 nM in assay [2] and 80 nM in assay [3] (setting [6]).
As for `CCN(CCCOc1ccc(Cc2ccccc2)cc1)CCC(=O)NS(C)(=O)=O` [Example 28], the inhibition at 10 mg/kg in assay [1] (setting [5]) worked out at 89%. In addition, the IC50 was 540 nM in assay [2] and 180 nM in assay [3] (setting [6]).
For the molecule `CC(C)N(CCCOc1ccc(Cc2ccsc2)cc1)CCC(=O)NS(=O)(=O)c1ccccc1` [Example 21], the inhibition at 10 mg/kg in assay [1] (setting [5]) was found to be 60%. Besides, the concentration for half-maximal inhibition (IC50) in assay [2] is 90 nM; in assay [3] (setting [6]), 150 nM.
Take `CC(C)(C)N(CCCOc1ccc(Cc2ccccc2)cc1)CCC(=O)NS(C)(=O)=O` [Example 25]: the inhibition at 10 mg/kg in assay [1] (setting [5]) was found to be 45%. The half-maximal inhibitory concentration (IC50) in assay [2] was 100 nM; in assay [3] (setting [6]), 110 nM.
On to `CC(C)N(CCCOc1ccc(Cc2ccccc2)cc1)CCC(=O)NS(C)(=O)=O` [Example 26], for which the inhibition at 10 mg/kg in assay [1] (setting [5]) turned out to be 81%. Moreover, the IC50 in assay [2] is 160 nM; in assay [3] (setting [6]) it was 220 nM.
For `CC(C)N(CCCOc1ccc(Cc2ccccc2)cc1)CCC(=O)NS(C)(=O)=O` [Example 27], the “Murine Ex Vivo LTB4 Inhibition, % I LTB4” value in assay [1] (setting [5]) came to 44%. Further, the concentration for half-maximal inhibition (IC50) in assay [2] was 47 nM; in assay [3] (setting [6]), 100 nM.
As to `CS(=O)(=O)NC(=O)CCN(CCCOc1ccc(Cc2ccccc2)cc1)C1CC1` [Example 24], the half-inhibitory concentration (IC50) in assay [2] came out at 2160 nM; in assay [3] (setting [6]), 2710 nM.
Take `CN(CCCOc1ccc(Cc2cccs2)cc1)CCC(=O)NS(C)(=O)=O` [Example 10, N-(Methylsulfonyl)-3-[methyl[3-[4-[(2-thienyl)-methyl]phenoxy]propyl]amino]propanamide]: in assay [1] (setting [5]), the inhibition at 10 mg/kg was 93%. For the same molecule, the values for the IC50 in assay [2] and in assay [3] (setting [6]) were 0.5 nM and 61 nM, respectively.
As for “N-(methylsulfonyl)-3-[propyl[3-[4-[(3-thienyl)methyl]phenoxy]propyl]-amino]propanamide [Example 20]”, the “Murine Ex Vivo LTB4 Inhibition, % I LTB4” value in assay [1] (setting [5]) is recorded as 56%. The 50% inhibitory concentration (IC50) in assay [2] and in assay [3] (setting [6]) was 150 nM in each case.
Regarding `CCN(CCCOc1ccc(Cc2ccsc2)cc1)CCC(=O)NS(=O)(=O)c1ccccc1` [Example 14, monohydrate], the inhibition at 10 mg/kg in assay [1] (setting [5]) was 87%. For the same molecule, the IC50 in assay [2] turned out to be 11 nM; in assay [3] (setting [6]), 82 nM.
Turning to `CC(C)N(CCCOc1ccc(Cc2cccs2)cc1)CCC(=O)NS(=O)(=O)c1ccccc1` [Example 13, 3-[(1-methylethyl)[3-[4-[(2-thienyl)methyl-]phenoxy]propyl]amino]-N-(phenylsulfonyl)-propanamide, monohydrochloride], the figures for the IC50 in assay [2] and in assay [3] (setting [6]) were 2.3 nM and 40 nM, respectively.
Regarding `C[C@H](CS)C(=O)N1CCC[C@H]1C(=O)O` [captopril], in assay [4], the “LTA4 hydrolase inhibitory activity” value was “exhibit LTA4 hydrolase inhibitory activity”.
On to `CN(CCCOc1ccc(Cc2ccsc2)cc1)CCC(=O)NS(=O)(=O)c1ccccc1` [Example 17, monohydrochloride], for which the inhibition at 10 mg/kg in assay [1] (setting [5]) was 93%. For the same molecule, the IC50 is 0.5 nM in assay [2] and 130 nM in assay [3] (setting [6]).
For the molecule `CCN(CCCOc1ccc(Cc2cccs2)cc1)CCC(=O)NS(C)(=O)=O` [Example 11, 3-[Ethyl[3-[4-[(2-thienyl)methyl]phenoxy]propyl]-amino]-N-(methylsulfonyl)propanamide monohydrochloride], the inhibition at 10 mg/kg in assay [1] (setting [5]) stood at 86%. For the same molecule, the figures for the concentration for half-maximal inhibition (IC50) in assay [2] and in assay [3] (setting [6]) were 33 nM and 66 nM, respectively.
The matching figures for `CN(CCCOc1ccc(Cc2ccccc2)cc1)CCC(=O)NS(C)(=O)=O` [Example 23]: 100%, 1.3 nM and 70 nM.
The matching figures for `CN(CCCOc1ccc(Cc2cccs2)cc1)CCC(=O)NS(=O)(=O)c1ccccc1` [Example 9]: 87%, under 0.5 nM and 79 nM.
In the case of `CN(CCCOc1ccc(Cc2ccsc2)cc1)CCC(=O)NS(C)(=O)=O` [Example 18, N-(methylsulfonyl)-3-[methyl[3-[4-[(3-thienyl)methyl]phenoxy]propyl]-amino]propanamide], the inhibition at 10 mg/kg in assay [1] (setting [5]) was determined as 94%. In addition, the half-inhibitory concentration (IC50) in assay [2] is 20 nM; in assay [3] (setting [6]) it was 190 nM.
As for `CC(C)N(CCCOc1ccc(Cc2ccsc2)cc1)CCC(=O)NS(C)(=O)=O` [Example 16], the inhibition at 10 mg/kg in assay [1] (setting [5]) worked out at 85%. For the same molecule, the results for the half-inhibitory concentration (IC50) in assay [2] and in assay [3] (setting [6]) were 450 nM and 200 nM, respectively.
